From patent publication US20250129430A1, “HIGH ATP-AFFINITY PROTEIN AS THERAPEUTIC TARGET FOR INTRACTABLE CANCER MOLECULAR SUBTYPES AND INHIBITOR THEREOF” (VeraVerse Co., Ltd., priority 2021, published 2025)

What was measured:
Experiment in all cases: Cell viability drug screen, 12-point dose-response AUC
Type in all cases: cell-based, human
[1] = tested on: SNU1967; conditions: SNU1967 cells; 72 hours
How it was run: (§1)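 Twelve half-log concentrations per compound were tested on gastric cancer cells with an EMT phenotype (5×10^3/well, dosed 24 h post-seeding). Viability after 72 h was quantified via luminescence relative to 0.5% DMSO, and repeats were averaged.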

[2] = tested on: SK4; conditions: SK4 cells (SEM subtype); 72 hours
How it was run: as §1

[3] = tested on: KATO3; conditions: KATO3 cells; 72 hours
How it was run: as §1

[4] = tested on: SNU719; conditions: SNU719 cells; 72 hours
How it was run: (§2)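 Gastric cancer lines seeded 5×10^3 cells/well, dosed after 24 h with half-log 12-point compound dilutions (DMSO 0.5% control), then 72 h at 37 °C. Viability by luminescence, normalized to DMSO; AUC by trapezoidal method, averaged over repeats.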

[5] = tested on: Hs746T; conditions: Hs746T cells (SEM subtype); 72 hours
How it was run: as §1

[6] = tested on: SNU1750; conditions: SNU1750 cells (SEM subtype); 72 hours
How it was run: as §1

[7] = tested on: SNU484; conditions: SNU484 cells (SEM subtype); 72 hours
How it was run: as §1

[8] = tested on: NCC59; conditions: NCC59 cells; 72 hours
How it was run: as §1

[9] = tested on: MKN74; conditions: MKN74 cells; 72 hours
How it was run: as §2

[10] = tested on: SNU668; conditions: SNU668 cells (SEM subtype); 72 hours
How it was run: as §1

[11] = tested on: NCC24; conditions: NCC24 cells; 72 hours
How it was run: as §1

[12] = tested on: MKN1; conditions: MKN1 cells; 72 hours
How it was run: as §1

[13] = tested on: YCC3; conditions: YCC3 cells; 72 hours
How it was run: as §1

[14] = tested on: YCC11; conditions: YCC11 cells (SEM subtype); 72 hours
How it was run: as §1

[15] = tested on: AGS; conditions: AGS cells (non-SEM subtype); 72 hours
How it was run: as §2

[16] = tested on: NCC19; conditions: NCC19 cells; 72 hours
How it was run: as §1

[17] = tested on: SNU638; conditions: SNU638 cells; 72 hours
How it was run: as §1

[18] = tested on: NCI_N87; conditions: NCI_N87 cells; 72 hours
How it was run: as §1

[19] = tested on: NCC20; conditions: NCC20 cells; 72 hours
How it was run: as §1

[20] = tested on: MKN45; conditions: MKN45 cells (non-SEM subtype); 72 hours
How it was run: as §2

[21] = tested on: MKN28; conditions: MKN28 cells; 72 hours
How it was run: as §1

[22] = tested on: SNU620; conditions: SNU620 cells; 72 hours
How it was run: as §1

[23] = tested on: SNU1; conditions: SNU1 cells; 72 hours
How it was run: as §1

[24] = tested on: OCUM1; conditions: OCUM1 cells; 72 hours
How it was run: as §1

[25] = tested on: SNU601; conditions: SNU601 cells; 72 hours
How it was run: as §1

[26] = tested on: YCC2; conditions: YCC2 cells; 72 hours
How it was run: as §1

[27] = tested on: SNU216; conditions: SNU216 cells (non-SEM subtype); 72 hours
How it was run: as §2

[28] = tested on: SNU16; conditions: SNU16 cells; 72 hours
How it was run: as §1

[29] = tested on: FU97; design: Average Area Under the Viability Curve (AUC), AUC norm value: scale not given here; conditions: FU97 cells; 72 hours
How it was run: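 Trapezoidal AUC of a 12-point, DMSO-normalized dose-response curve. Luminescent viability was measured after 72 h of exposure at 37° C to half-log serial dilutions (0.5% DMSO control), dosed 24 h after plating FU97 cells at 5×10^3 per well.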

Compound	Average Area Under the Viability Curve (AUC), AUC norm value [1]	Average Area Under the Viability Curve (AUC), AUC norm value [2]	Average Area Under the Viability Curve (AUC), AUC norm value [3]	Average Area Under the Viability Curve (AUC), AUC norm value [4]	Average Area Under the Viability Curve (AUC), AUC norm value [5]	Average Area Under the Viability Curve (AUC), AUC norm value [6]	Average Area Under the Viability Curve (AUC), AUC norm value [7]	Average Area Under the Viability Curve (AUC), AUC norm value [8]	Average Area Under the Viability Curve (AUC), AUC norm value [9]	Average Area Under the Viability Curve (AUC), AUC norm value [10]	Average Area Under the Viability Curve (AUC), AUC norm value [11]	Average Area Under the Viability Curve (AUC), AUC norm value [12]	Average Area Under the Viability Curve (AUC), AUC norm value [13]	Average Area Under the Viability Curve (AUC), AUC norm value [14]	Average Area Under the Viability Curve (AUC), AUC norm value [15]	Average Area Under the Viability Curve (AUC), AUC norm value [16]	Average Area Under the Viability Curve (AUC), AUC norm value [17]	Average Area Under the Viability Curve (AUC), AUC norm value [18]	Average Area Under the Viability Curve (AUC), AUC norm value [19]	Average Area Under the Viability Curve (AUC), AUC norm value [20]	other results
CC(C)C[C@H](NC(=O)CNC(=O)c1cc(Cl)ccc1Cl)B1OC(=O)C(CC(=O)O)(CC(=O)O)O1 [MLN9708]	−1.556	0.4078	0.559	1.304	−1.547	−2.161	−1.069	−0.3472	−0.4008	1.232	−0.9085	0.06734	2.717	−1.824	−0.6988	−0.7913	0.0059	1.9321	−1.527	0.2581	Average Area Under the Viability Curve (AUC), AUC norm value [21]: 0.1368; Average Area Under the Viability Curve (AUC), AUC norm value [22]: −0.7036; Average Area Under the Viability Curve (AUC), AUC norm value [23]: 0.02493; Average Area Under the Viability Curve (AUC), AUC norm value [24]: 2.097; Average Area Under the Viability Curve (AUC), AUC norm value [25]: 0; Average Area Under the Viability Curve (AUC), AUC norm value [26]: 0.3377; Average Area Under the Viability Curve (AUC), AUC norm value [27]: 0.1416; Average Area Under the Viability Curve (AUC), AUC norm value [28]: −2.259; Average Area Under the Viability Curve (AUC), AUC norm value [29]: −1.568
CO[C@H]1C(=O)[C@]2(C)[C@@H](OC)C[C@H]3OC[C@@]3(OC(C)=O)[C@H]2[C@H](OC(=O)c2ccccc2)[C@]2(O)C[C@H](OC(=O)[C@H](O)[C@@H](NC(=O)OC(C)(C)C)c3ccccc3)C(C)=C1C2(C)C [Cabazitaxel (Jevtana), Cabazitaxel]	1.228	−0.7298	4.95	6.209	1.085	0.6058	−0.7278	3.939	0.4319	0.4109	−1.077	−1.266	3.384	−1.189	−2.201	0	−0.1608	−1.712	−0.8551	2.138	Average Area Under the Viability Curve (AUC), AUC norm value [21]: −2.213; Average Area Under the Viability Curve (AUC), AUC norm value [22]: −3.501; Average Area Under the Viability Curve (AUC), AUC norm value [23]: −3.451; Average Area Under the Viability Curve (AUC), AUC norm value [24]: 3.086; Average Area Under the Viability Curve (AUC), AUC norm value [25]: −1.688; Average Area Under the Viability Curve (AUC), AUC norm value [26]: 0.2073; Average Area Under the Viability Curve (AUC), AUC norm value [27]: 2.335; Average Area Under the Viability Curve (AUC), AUC norm value [28]: −2.759; Average Area Under the Viability Curve (AUC), AUC norm value [29]: 0.3061
CN(C)Cc1c(C(=O)NCCOc2ccc(C(=O)NO)cc2)oc2ccccc12 [PCI-24781]	−1.126	0.451	−0.2111	1.428	−0.03183	−1.499	0.1533	0.9766	0.2128	0.53	−0.2766	0.6581	0.8426	−0.09531	−1.161	0.3282	−0.06055	−0.3803	−1.065	2.259	Average Area Under the Viability Curve (AUC), AUC norm value [21]: −0.378; Average Area Under the Viability Curve (AUC), AUC norm value [22]: −0.6966; Average Area Under the Viability Curve (AUC), AUC norm value [23]: 0.3429; Average Area Under the Viability Curve (AUC), AUC norm value [24]: 0; Average Area Under the Viability Curve (AUC), AUC norm value [25]: 0.6141; Average Area Under the Viability Curve (AUC), AUC norm value [26]: 0.00064; Average Area Under the Viability Curve (AUC), AUC norm value [27]: 0.03042; Average Area Under the Viability Curve (AUC), AUC norm value [28]: −1.233; Average Area Under the Viability Curve (AUC), AUC norm value [29]: −1.786
